From publication PMC10385579, “Design, Synthesis, and Biological Evaluation of Indole-2-carboxamides as Potential Multi-Target Antiproliferative Agents” (Pharmaceuticals, 2023) come the findings set out here.

Common to all, as to assay type: cell-based, human
For one assay, the system named is caspase-3. Put plainly: Caspase 3 assay in A-549 cells. As to conditions: for Caspase-3 Conc: untreated control 66 pg/mL. As to the method:
Caspases play a crucial function in the induction and completion of apoptosis. Caspase-3 is an essential caspase that cleaves different proteins in cells, resulting in apoptosis. […]
4.2.5. Caspase-3 activation assay
Allow all reagents to reach room temperature before use. Gently mix all liquid reagents prior to use. Determine the number of 8-well strips needed for the assay. Insert these in the frame(s) for current use. Add 100 μl of the Standard Diluent Buffer to the zero standard wells. Well(s) reserved for chromogen blank should be left empty. Add 100 μl of standards and controls or diluted samples to the appropriate microtiter wells. The sample dilution chosen should be optimized for each experimental system. Tap gently on side of plate to mix. Cover wells with plate cover and incubate for 2 hours at room temperature. Thoroughly aspirate or decant solution from wells and discard the liquid, Wash wells 4 times. Pipette 100 μl of Caspase-3 (Active) Detection Antibody solution into each well except the chromogen blank(s). Tap gently on the side of the plate to mix. Cover plate with plate cover and incubate for 1 hour at room temperature. Thoroughly aspirate or decant solution from wells and discard the liquid, Wash wells 4 times. Add 100 μl Anti-Rabbit IgG HRP Working Solution to each well except the chromogen blank(s). Prepare the working dilution as described in Preparing IgG HRP. Cover wells with the plate cover and incubate for 30 minutes at room temperature. Thoroughly aspirate or decant solution from wells and discard the liquid. Wash wells 4 times. Add 100 μl of Stabilized Chromoge n to each well. The liquid in the wells will begin to turn blue. Incubate for 30 minutes at room temperature and in the dark. The incubation time for chromogen substrate is often determined by the microtiter plate reader used. Many plate readers have the capacity to record a maximum optical density (O.D.) of 2.0. The O.D. values should be monitored, and the substrate reaction stopped before the O.D. of the positive wells exceeds the limits of the instrument. The O.D. values at 450 nm can only be read after the Stop Solution has been added to each well. If using a reader that records only to 2.0 O.D., stopping the assay after […]
Add 100 μl of Stop Solution to each well. Tap side of plate gently to mix. The solution in the wells should change from blue to yellow. Read the absorbance of each well at 450 nm having blanked the plate reader against a chromogen blank composed of 100 μl each of Stabilized Chromogen and Stop Solution. Read the plate within 2 hours after adding the Stop Solution. Use a curve fitting software to generate the standard curve. A four-parameter algorithm provides the best standard curve fit. Read the concentrations for unknown samples and controls from the standard curve. Multiply value(s) obtained for sample(s) by the appropriate dilution factor to correct for the dilution in step 3. Samples producing signals greater than that of the highest standard should be diluted in Standard Diluent Buffer and reanalyzed.

The next assay deals with caspase-8. Nature of the assay: Caspase-8 level assay in A-549 cells. As to the method:
See Supplementary Materials.
4.2.6. Caspase-8 activation assay […]
caspase8, and lysed with Cell Extraction Buffer. This lysate was diluted in Standard Diluent Buffer over the range of the assay and measured for human active caspase-8 content. (Cells are Plated in a density of 1.2 – 1.8 × 10,000 cells/well in a vo lume of 100µl complete growth medium + 100 ul of the tested compound per well in a 96-well plate for 24 hours before the enzyme assay for Tubulin.). The absorbance of each microwell was read on a spectro-photometer at 450 nm. A standard curve is prepared from 7human Caspase-8 standard dilutions and human Caspase-8 concentration determined. […]

A further assay relates to Bax. Nature of the assay: Bax level assay in A-549 cells. As to the method:
caspase8, and lysed with Cell Extraction Buffer. This lysate was diluted in Standard Diluent Buffer over the range of the assay and measured for human active caspase-8 content. […]
4.2.7. Bax activation assay
Bring all reagents, except the human Bax-α Standard, to room temperature for at least 30 minutes prior to opening. The human Bax-α Standard solution should not be left at room temperature for more than 10 minutes. All standards, controls and samples should be run in duplicate. Refer to the Assay Layout Sheet to determine the number of wells to be used and put any remaining wells with the desiccant back into the pouch and seal the ziploc. Store unused wells at 4 °C. Pipet 100 μL of Assay Buffer into the S0 (0 pg/mL standard) wells. Pipet 100 μL of Standards #1 through #6 into the appropriate wells. Pipet 100 μL of the Samples into the appropriate wells. Tap the plate gently to mix the contents. Seal the plate and incubate at room temperature on a plate shaker for 1 hour at ~500 rpm. Empty the contents of the wells and wash by adding 400 μL of wash solution to every well. Repeat the wash 4 more times for a total of 5 washes. After the final wash, empty or aspirate the wells and firmly tap the plate on a lint free paper towel to remove any remaining wash buffer.
Pipet 100 μL of yellow Antibody into each well, except the Blank. Seal the plate and incubate at room temperature on a plate shaker for 1 hour at ~500 rpm. Empty the contents of the wells and wash by adding 400 μL of wash solution to every well. Repeat the wash 4 more times for a total of 5 washes. After the final wash, empty or aspirate the wells and firmly tap the plate on a lint free paper towel to remove any remaining wash buffer. Add 100 μL of blue Conjugate to each well, except the Blank. Seal the plate and incubate at room temperature on a plate shaker for 30 minutes […]
Pipet 100 μL of Substrate Solution into each well. Incubate for 30 minutes at room temperature on a plate shaker at ~500 rpm. Pipet 100 μL Stop Sol ution to each well. Blank the plate reader against the Blank wells, read the optical density at 450 nm. Calculate the average net Optical Density (OD) bound for each standard and sample by subtracting the average Blank OD from the average OD for each standard and sample. Using linear graph paper, plot the Average Net OD for each standard versus Bax concentration in each standard. Approximate a straight line through the points.
The concentration of Bax in the unknowns can be determined by interpolation. […]

A further assay relates to Bcl-2. Put plainly: Bcl-2 level assay in A-549 cells. As to the method: Compounds Va and Vg were explored further for their impact on caspase-8, Bax, and Bacl-2 levels against a human epithelial cancer cell line (A-549) using doxorubicin as a reference. See Supplementary Materials. […]
4.2.8. Bcl-2inhibition assay
Mix all reagents thoroughly without foaming before use. Wash the microwells twice with approximately 300 μL Wash Buffer per well with thorough aspiration of microwell contents between washes. Take caution not to scratch the surface of the microwells. After the last wash, empty the wells and tap microwell strips on absorbent pad or paper towel to remove excess Wash Buffer. Use the microwell strips immediately after washing or place upside down on a wet absorbent paper for not longer than 15 minutes. […] Add 100 μL of Sample […]
Diluent in duplicate to all standard wells and to the blank wells. Prepare standard (1:2 dilution) in duplicate ranging from 32 ng/mL to 0.5 ng/mL. Add 100 μL of Sample Diluent, in duplicate, to the blank wells. Add 80 μL of Sample Diluent, in duplicate, to the sample wells. Add 20 μL of each Sample, in duplicate, to the designated wells. Add 50 μL of diluted biotin-conjugate to all wells, including the blank wells. Cover with a plate cover and incubate at room temperature, on a microplate shaker at 100 rpm if available, for 2 hours. Remove plate cover and empty the wells.
Wash microwell strips 3 times as described in step 2. Add 100 μL of diluted Streptavidin-HRP to all wells, including the blank wells. Cover with a plate cover and incubate at room temperature, on a microplate shaker at 100 rpm if available, for 1 hour. Remove plate cover and empty the wells.
Wash microwell strips 3 times as described in step 2. Proceed to the next step. Pipette 100 μl of mixed TMB Substrate Solution to all wells, including the blanks. Incubate the microwell strips at room temperature (18° to 25°C) for about 15 minutes, if available on a rotator set at 100 rpm.
Avoid direct exposure to intense light. The point, at which the substrate reaction is stopped, is often determined by the ELISA reader. Many ELISA readers record absorbance only up to 2.0
O.D. Therefore, the color development within individual microwells must be watched by the person running the assay and the substrate reaction stopped before positive wells are no longer properly detectable. Stop the enzyme reaction by quickly pipetting 100 μL of Stop Solution into each well, including the blank wells. It is important that the Stop Solution is spread quickly and uniformly throughout the microwells to completely inactivate the enzyme. Results must be read immediately after the Stop Solution is added or within one hour if the microwell strips are stored at 2 - 8°C in the dark. Read absorbance of each microwell on a spectrophotometer using 450 nm as the primary wavelength.

Turning to `COc1cccc2c1C(=O)c1c(O)c3c(c(O)c1C2=O)C[C@@](O)(C(=O)CO)C[C@@H]3O[C@H]1C[C@H](N)[C@H](O)[C@H](C)O1` [Doxorubicin, reference compound], the “Caspase-3 Conc” value with caspase-3 was 505 ± 4 pg/mL; with caspase-3 (listed as doxorubicin), 505 ± 4.0 pg/mL. In the assay on caspase-3 (vs untreated control), the “Caspase-3 Fold Change” value stood at 7.5. Besides, the “Caspase-8 Conc” value in the assay with caspase-8 (control 0.10) is given as 1.80 ng/mL. In the assay with caspase-8 (vs control), the “Caspase-8 Fold Change” value came out at 18. For the same compound, the “Bax Conc” value in the assay with Bax (control 9) stood at 280 pg/mL. The “Bax Fold Change” value with Bax (vs control) is listed as 31. Moreover, in the assay on Bcl-2 (control 5), the “Bcl-2 Conc” value is 0.90 ng/mL. The “Bcl-2 Fold Reduction” value in the assay with Bcl-2 (vs control) was found to be 6.
